According to patent US11209437B2, “Fluorescent probe and preparation method and use thereof” (Fluorescence Diagnosis (shanghai) Biotech Company Ltd., priority 2016, dated 2021):

Legend:
[1] = Viscosity responsiveness: fluorescence emission spectra of probes in glycerol and methanol; assay type: physicochemical; details: for Emission wavelength: excited at maximum excitation wavelength of each probe; for Fluorescence ratio in glycerol to methanol: probe 1×10^−5 M
Procedure, shortened: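 Each probe, from a 1×10^−2 M DMSO stock, was diluted to a final 1×10^−5 M in glycerol and in methanol. Fluorescence emission spectra were then recorded under identical conditions at each probe's maximum excitation wavelength.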

[2] = system: SNAP-IAA17-H2B protein; experiment: Fluorescence change on AID-induced degradation of SNAP-IAA17-H2B in HeLa cells; assay type: cell-based; details: 1 μM probe; 120 min after indoleacetic acid
Text: To verify the correlation between the fluorescent activation of the probe of the present invention and the existence of proteins, SNAP protein in mammalian cells was taken as an example, and the fluorescence changes of SNAP protein binding probes after protein degradation were detected in HeLa cells by taking AID degradation system as an example. Firstly, HeLa cells were implanted 20,000/cm^2 in a 20 mm glass-bottom cell culture dish, and 14 hrs later, plasmids pcdna3.1-TIR1 and pcdna3.1-SNAP-IAA17-H2B were transfected by invitrogen's lipofectmain2000 transfection reagent. 24 hrs after the cell transfection, the original cell culture medium was replaced with a phenol-free red DMEM medium containing 1 μM of probe 21 to label the cells. The cell samples were incubated in a carbon dioxide incubator at 37° C. for 1 hour. After the labeling was completed, the fluorescence signal of labeled cells was detected by imaging with a Leica SP8 laser confocal microscopy, and indoleacetic acid (IAA) was added to induce SNAP-IAA17-H2B protein to degrade, and the cell fluorescence changes were detected during the protein degradation. […] When proteins exist, the fluorescence is activated, and when proteins are degraded, the fluorescence disappears, which can be used to track and monitor the degradation process of target proteins.

[3] = system: HeLa cells with stable expression of protein tags; experiment: Labeling of HeLa cells expressing protein tags vs HeLa-WT cells, confocal imaging; assay type: cell-based; details: probe 5 μM, 37° C., 2 hrs
Experimental: HeLa cells with stable expression of protein tags and HeLa-WT cells (HeLa primitive cells, with no protein tag expressed) were implanted in a 14 mm glass-bottom 96-well cell culture plate and stabilized for 10 hrs. Probes 1, 15, 21, 30, 56, 60, 63, 88 were added to the media, respectively and diluted to 5 μMs. The cells were incubated in a carbon dioxide incubator at 37° C. for 2 hrs, and then a Leica TPS-8 confocal microscopy was used to image the fluorescent changes of the labeled cells. […] However, for HeLa cells with protein tags expressed shown by group A in FIG. 12, strong fluorescent signals could be detected, which are nearly 300 times stronger.

[4] = biological target: T1, SNAP protein tags (Homo sapiens, UniProt P16455, A127T/A154D/C150Q/C62A/E30R/G131K/G132T/G153L/K125A/K32I/L33F/M134L/N157G/Q115S/Q116H/R128A/R135S/S151G/S152D/S159E); experiment: Fluorescence activation of probe after incubation with corresponding protein tag (SNAP); assay type: biochemical; details: probe 5 μM, protein tag 10 μM, 37° C., 1 hr
T1 sequence (P16455 1-182 E30R/K32I/L33F/C62A/Q115S/Q116H/K125A/A127T/R128A/G131K/G132T/M134L/R135S/C150Q/S151G/S152D/G153L/A154D/N157G/S159E): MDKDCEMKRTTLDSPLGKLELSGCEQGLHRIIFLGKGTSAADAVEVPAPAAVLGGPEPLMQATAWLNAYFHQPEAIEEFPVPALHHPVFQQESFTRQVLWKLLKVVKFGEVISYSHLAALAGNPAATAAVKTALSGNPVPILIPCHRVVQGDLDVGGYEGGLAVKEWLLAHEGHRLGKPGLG
Procedure, shortened: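 Probe (5 μM final) mixed with CLIP or SNAP protein tag (10 μM final) and incubated 1 hr at 37° C. Fluorescence intensity change measured by fluorescence spectrophotometer, with quantum yield of tag-bound probe determined.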

[5] = system: HeLa cells; experiment: Labeling of organelle-localized protein tags in HeLa cells without washing; assay type: cell-based; details: 0.2 μM probe, 2 hrs, no washing
Text: To verify that probes 1, 21, 48, 60, 66 and 77 can be used to label target proteins located by different organelles, HeLa cells were taken as an example to detect the effect of probes on labeling different subcellular proteins. HeLa cells were implanted 5000 cells per well in a 96-well glass-bottom cell culture plate. 14 hrs later, the cells were transfected with the plasmids encoding different organelle localized protein tags using Lipo2000; the original medium was removed 24 hrs after transfection, washed with a phenol-free red DMEM medium twice, and incubated with a phenol-free red medium containing 0.2 μM probes for 2 hrs, and then the cell labeling effects were detected by imaging with a leica TCS-8 confocal microscopy.

[6] = system: fusion protein CX43-SNAP; experiment: Tracing assembly of CX43-SNAP intercellular channels in HeLa cells; assay type: cell-based; details: probe 21 2 μM 1 hour first, then probe 1 1 μM
Text: To verify that the probe of the present invention can be used to monitor the assembly and degradation process of biological macromolecules in mammalian cells in real time, the process of tracing the assembly of intercellular protein CX43 to form intercellular channels in mammalian cells by the probe was detected by taking HeLa cells as an example. The C-terminal of CX43 gene was fused with SNAP gene, and HeLa cell line with stable expression of fusion protein CX43-SNAP was constructed and obtained by lentivirus infection technology. HeLa-CX43-SNAP cell lines were implanted in a 20 mm glass-bottom cell culture dish 10 hrs before the probe labeling. To conduct labeling, a phenol-free red DMEM medium was first used to dilute the probe 21 to 2 μM to replace the original cell culture medium. Cells were incubated in a carbon dioxide incubator at 37° C. for 1 hour. The cells were then washed twice using a fresh phenol-free red DMEM medium, with unbound probe 21 removed at 2-minute intervals. Then, DMEM phenol-free red culture medium containing 1 μM probe 1 was added to label cells. Leica SP8 confocal microscopy was used to monitor for a long time the fluorescence intensity and position changes of labeled cell samples at the corresponding fluorescence channels of probes 21 and 1, as shown in FIGS. 17A and 17B, respectively. […]

[7] = Fluorescence of free probe prior to binding to a protein tag; assay type: physicochemical
[8] = system: SNAP protein tag; experiment: In vivo labeling of SNAP protein tag expressed in mouse liver; details: mice, tail vein injection, 6 hrs after probe
Experimental: (§1) First, a SNAP protein tag expressing plasmid, pcdna3.1-SNAP (sample group), and a control plasmid without SNAP protein tag expressing, pcdna3.1-CAT (control group), were introduced into mice. This method dissolves plasmids in a large volume of solution and rapidly injects them into mice through tail vein injection. The mouse liver and kidneys absorb DNA and then express the target protein. 20 hrs after plasmid injection, 0.4 μM probe 88 dissolved in 200 μl PBS was injected into mice through tail vein injection to label the SNAP protein tag. 6 hrs later, the mice were dissected, and the fluorescence differences in the liver parts of different mouse samples were detected by KODAK multi-spectral in vivo imaging system. The liver fluorescence of the control plasmid pcdna3.1-CAT injected with probe 88 was very low, close to the background fluorescence level of the blank liver without the probe, while the liver of SNAP plasmid pcdna3.1-SNAP injected with probe 88 had strong fluorescence, and the signal intensity was more than 20 times higher than that of the control group.

[9] = biological target: T2, SNAP protein tag (Homo sapiens, UniProt P16455, A127T/A154D/C150Q/C62A/E30R/G131K/G132T/G153L/K125A/K32I/L33F/M134L/N157G/Q115S/Q116H/R128A/R135S/S151G/S152D/S159E); experiment: as above; details: mice, tail vein injection, 6 hrs after probe
T2 construct: expressed in transfected cells; host or cells: mouse liver after tail-vein plasmid injection
T2 sequence (P16455 1-182 E30R/K32I/L33F/C62A/Q115S/Q116H/K125A/A127T/R128A/G131K/G132T/M134L/R135S/C150Q/S151G/S152D/G153L/A154D/N157G/S159E): T1 sequence (P16455 1-182 E30R/K32I/L33F/C62A/Q115S/Q116H/K125A/A127T/R128A/G131K/G132T/M134L/R135S/C150Q/S151G/S152D/G153L/A154D/N157G/S159E)
Experimental: as §1

Row | Structure (SMILES) | Emission wavelength [1] | Fluorescence ratio in glycerol to methanol [1] | Fluorescence signal after indoleacetic acid-induced protein degradation [2] | Fluorescence signal in HeLa-WT cells (no protein tag expressed) [3] | Fluorescent signal in HeLa cells with protein tags expressed, relative to HeLa-WT [3] | Fluorescence activation multiple [4] | Quantum yield of probe bound to protein tag [4] | Labeling of subcellular organelle structures [5] | Fluorescence signal at intercellular channels [6] | Quantum yield of free probe [7] | Liver fluorescence of control plasmid pcdna3.1-CAT group [8] | Liver fluorescence signal intensity of pcdna3.1-SNAP group relative to control group [9]
1 | CN(CCOC(=O)NCc1ccc(COc2nc(N)nc3[nH]cnc23)cc1)c1cc2sc(/C=C(\C#N)C(=O)OC(C)(C)C)cc2s1 [probe 21] | 555 nm | 1481 | basically invisible | no corresponding fluorescence signal was detected | ~300 times | 560 | 0.48 | clearly display a variety of subcellular organelle structures without washing | long-columnar specific fluorescence signal between two cells | <0.001 | – | –
2 | CC1=CC(C)(C)N(CCOC(=O)NCc2ccc(COc3nc(N)nc4[nH]cnc34)cc2)c2ccc(/C=C(\C#N)c3nc4ccccc4o3)cc21 [probe 88] | 595 nm | 298 | – | no corresponding fluorescence signal was detected | ~300 times | 621 | 0.29 | – | – | <0.001 | very low | more than 20 times
